Columns and labels:
[1] = target: FcRn; experiment: KD [nM]
Source text: Errors are standard errors from fitting using FortéBio data analysis software 9.1. Fitting quality is characterized by R^2. Data is derived from BLI sensorgrams represented in FIG. 22 and FIG. 23.

[2] = tested on: HER2 positive (SKBR-3, HCC-1954) and HER2 negative (MDA-MB-468) cells; experiment: Cellular binding analysis by flow cytometry; type: cell-based, human; conditions: 100 nM, 60 min, 4° C.
Method: Relative order of fluorescence intensity of distinct variants on HER2 positive cells correspond to their HER2 binding affinity. Cells were incubated with 100 nM of Fcab/antibody for 60 min at 4° C., washed twice with PBS-1% BSA, incubated for 30 min with 500 nM of AF488-labeled detection antibody (Jackson ImmunoResearch) at 4° C. in darkness, washed twice with PBS-1% BSA, and finally fluorescence intensity was measured applying an Attune NxT flow cytometer (Invitrogen™).

Kd [1] [nM] | Substance | cellular binding to HCC-1954 cells (in words) [2]
524 ± 13 | huFc: native human Fc-based negative control [listing 1 of 2 here] | –
– | huFc: native human Fc-based negative control [listing 2 of 2 here] | binds only slightly

From US20250281633A1, “HER2 TARGETING FC ANTIGEN BINDING FRAGMENT-DRUG CONJUGATES” (MERCK PATENT GMBH, priority 2021, published 2025)
